{
  "source": "patent US6906205B2",
  "about": "“Spiro and dispiro 1,2,4-trioxolane antimalarials” (Medicines for Malaria Venture MMV, priority 2002, dated 2005)",
  "data": [
    {"tested_on": "P. falciparum K1 strain (Thailand resistant to chloroquine)", "assay": "semiautomated microdilution assay, [3H]-hypoxanthine incorporation, K1 strain", "format": "cell-based, Plasmodium falciparum", "conditions": "K1 strain, 72 h incubation", "protocol": "(§1) Various OZ compounds were tested by the semiautomated microdilution assay against intraerythrocytic forms of Plasmodium falciparum derived from asynchronous stock cultures.\n(§2) Fifty percent inhibitory concentration (IC50) were estimated by Logit regression analysis.", "values": [
      {"molecule": "O=C(O)c1ccc(OC[C@H]2CC[C@]3(CC2)OOC2(O3)C3CC4CC(C3)CC2C4)cc1", "note": "(some centres unmarked) [OZ176]", "IC50 (ng/ml) K1": "25 ng/mL"},
      {"molecule": "FC1CCCCC12OOC1(CCCCC1)O2", "note": "(centres unmarked) [OZ06]", "IC50 (ng/ml) K1": "18 ng/mL"},
      {"molecule": "BrC[C@H]1CC[C@]2(CC1)OOC1(O2)C2CC3CC(C2)CC1C3", "note": "(some centres unmarked) [OZ123]", "IC50 (ng/ml) K1": "1.6 ng/mL"},
      {"molecule": "O=C(NO)[C@H]1CC[C@]2(CC1)OOC1(O2)C2CC3CC(C2)CC1C3", "note": "(some centres unmarked) [OZ116]", "IC50 (ng/ml) K1": "4.2 ng/mL"},
      {"molecule": "O=C(O)c1cncn1C[C@H]1CC[C@]2(CC1)OOC1(O2)C2CC3CC(C2)CC1C3", "note": "(some centres unmarked) [OZ231]", "IC50 (ng/ml) K1": ">10/>10 ng/ml"},
      {"molecule": "OCC1(CO)COC2(CCC3(CC2)OOC2(O3)C3CC4CC(C3)CC2C4)OC1", "note": "(centres unmarked) [OZ121]", "IC50 (ng/ml) K1": "0.96 ng/mL"}
    ]},
    {"tested_on": "P. falciparum NF54 strain (sensitive to standard antimalarials)", "assay": "semiautomated microdilution assay, [3H]-hypoxanthine incorporation, NF54 strain", "format": "cell-based, Plasmodium falciparum", "conditions": "NF54 strain, 72 h incubation", "protocol": "as §1, §2", "values": [
      {"molecule": "O=C(O)c1ccc(OC[C@H]2CC[C@]3(CC2)OOC2(O3)C3CC4CC(C3)CC2C4)cc1", "note": "(some centres unmarked) [OZ176]", "IC50 (ng/ml) NF54": "35 ng/mL"},
      {"molecule": "FC1CCCCC12OOC1(CCCCC1)O2", "note": "(centres unmarked) [OZ06]", "IC50 (ng/ml) NF54": "22 ng/mL"},
      {"molecule": "BrC[C@H]1CC[C@]2(CC1)OOC1(O2)C2CC3CC(C2)CC1C3", "note": "(some centres unmarked) [OZ123]", "IC50 (ng/ml) NF54": "1.9 ng/mL"},
      {"molecule": "O=C(NO)[C@H]1CC[C@]2(CC1)OOC1(O2)C2CC3CC(C2)CC1C3", "note": "(some centres unmarked) [OZ116]", "IC50 (ng/ml) NF54": "3.3 ng/mL"},
      {"molecule": "O=C(O)c1cncn1C[C@H]1CC[C@]2(CC1)OOC1(O2)C2CC3CC(C2)CC1C3", "note": "(some centres unmarked) [OZ231]", "IC50 (ng/ml) NF54": ">10/>10 ng/ml"},
      {"molecule": "OCC1(CO)COC2(CCC3(CC2)OOC2(O3)C3CC4CC(C3)CC2C4)OC1", "note": "(centres unmarked) [OZ121]", "IC50 (ng/ml) NF54": "0.41 ng/mL"}
    ]},
    {"tested_on": "ANKA strain of P. berghei", "assay": "single dose STI in vivo screen in infected mice", "set-up": "species or system Plasmodium berghei", "conditions": "percent reduction in parasitemia day 3 post-infection; single 10 mg/kg po in 3% ethanol and 7% Tween 80; mice", "how_it_was_run": "(§3)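 Groups of 3-5 Moro SPF or NMRI mice infected with the ANKA strain of P. berghei received a single dose of trioxolane on day one post-infection. The compound was given in 3% ethanol and 7% Tween 80 or in SSV (0.5% w/v CMC, 0.5% v/v benzyl alcohol, 0.4% v/v Tween 80, 0.9% w/v sodium chloride in water). Antimalarial activity was scored as percent reduction in parasitemia on day three and as survival time versus untreated controls. Survival to day 30 counted as cure.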", "values": [
      {"molecule": "O=C(O)c1ccc(OC[C@H]2CC[C@]3(CC2)OOC2(O3)C3CC4CC(C3)CC2C4)cc1", "note": "(some centres unmarked) [OZ176]", "Activity (%) po": "11%"},
      {"molecule": "BrC[C@H]1CC[C@]2(CC1)OOC1(O2)C2CC3CC(C2)CC1C3", "note": "(some centres unmarked) [OZ123]", "Activity (%) po": "99.66%"},
      {"molecule": "O=C(NO)[C@H]1CC[C@]2(CC1)OOC1(O2)C2CC3CC(C2)CC1C3", "note": "(some centres unmarked) [OZ116]", "Activity (%) po": "97%"},
      {"molecule": "O=C(O)c1cncn1C[C@H]1CC[C@]2(CC1)OOC1(O2)C2CC3CC(C2)CC1C3", "note": "(some centres unmarked) [OZ231]", "Activity (%) po": "0/0/0%"},
      {"molecule": "OCC1(CO)COC2(CCC3(CC2)OOC2(O3)C3CC4CC(C3)CC2C4)OC1", "note": "(centres unmarked) [OZ121]", "Activity (%) po": "91%"}
    ]},
    {"tested_on": "ANKA strain of P. berghei", "assay": "single dose STI in vivo screen in infected mice", "set-up": "species or system Plasmodium berghei", "conditions": "percent reduction in parasitemia day 3 post-infection; single 10 mg/kg sc in 3% ethanol and 7% Tween 80; mice", "how_it_was_run": "as §3", "values": [
      {"molecule": "O=C(O)c1ccc(OC[C@H]2CC[C@]3(CC2)OOC2(O3)C3CC4CC(C3)CC2C4)cc1", "note": "(some centres unmarked) [OZ176]", "Activity (%) sc": "24%"},
      {"molecule": "BrC[C@H]1CC[C@]2(CC1)OOC1(O2)C2CC3CC(C2)CC1C3", "note": "(some centres unmarked) [OZ123]", "Activity (%) sc": "99.96%"},
      {"molecule": "O=C(NO)[C@H]1CC[C@]2(CC1)OOC1(O2)C2CC3CC(C2)CC1C3", "note": "(some centres unmarked) [OZ116]", "Activity (%) sc": "96%"},
      {"molecule": "O=C(O)c1cncn1C[C@H]1CC[C@]2(CC1)OOC1(O2)C2CC3CC(C2)CC1C3", "note": "(some centres unmarked) [OZ231]", "Activity (%) sc": "0/0/0%"},
      {"molecule": "OCC1(CO)COC2(CCC3(CC2)OOC2(O3)C3CC4CC(C3)CC2C4)OC1", "note": "(centres unmarked) [OZ121]", "Activity (%) sc": "99.61%"}
    ]},
    {"tested_on": "ANKA strain of P. berghei", "assay": "single dose STI in vivo screen in infected mice", "set-up": "species or system Plasmodium berghei", "conditions": "percent reduction in parasitemia day 3 post-infection; single po dose in standard suspending vehicle (SSV); mice", "how_it_was_run": "as §3", "values": [
      {"molecule": "O=C(O)c1ccc(OC[C@H]2CC[C@]3(CC2)OOC2(O3)C3CC4CC(C3)CC2C4)cc1", "note": "(some centres unmarked) [OZ176]", "Activity (%) SSVpo": "18%"},
      {"molecule": "BrC[C@H]1CC[C@]2(CC1)OOC1(O2)C2CC3CC(C2)CC1C3", "note": "(some centres unmarked) [OZ123]", "Activity (%) SSVpo": "94%"},
      {"molecule": "O=C(NO)[C@H]1CC[C@]2(CC1)OOC1(O2)C2CC3CC(C2)CC1C3", "note": "(some centres unmarked) [OZ116]", "Activity (%) SSVpo": "96%"},
      {"molecule": "O=C(O)c1cncn1C[C@H]1CC[C@]2(CC1)OOC1(O2)C2CC3CC(C2)CC1C3", "note": "(some centres unmarked) [OZ231]", "Activity (%) SSVpo": "0/0/0%"},
      {"molecule": "OCC1(CO)COC2(CCC3(CC2)OOC2(O3)C3CC4CC(C3)CC2C4)OC1", "note": "(centres unmarked) [OZ121]", "Activity (%) SSVpo": "98%"}
    ]},
    {"tested_on": "ANKA strain of P. berghei", "assay": "single dose STI in vivo screen in infected mice", "set-up": "species or system Plasmodium berghei", "conditions": "single 10 mg/kg po in 3% ethanol and 7% Tween 80; untreated control 5.6 ± 0.3", "how_it_was_run": "as §3", "values": [
      {"molecule": "O=C(O)c1ccc(OC[C@H]2CC[C@]3(CC2)OOC2(O3)C3CC4CC(C3)CC2C4)cc1", "note": "(some centres unmarked) [OZ176]", "Survival (days) po": "7.0 days"},
      {"molecule": "FC1CCCCC12OOC1(CCCCC1)O2", "note": "(centres unmarked) [OZ06]", "Survival (days) po": "1.0/NA/1.0^1 days"},
      {"molecule": "BrC[C@H]1CC[C@]2(CC1)OOC1(O2)C2CC3CC(C2)CC1C3", "note": "(some centres unmarked) [OZ123]", "Survival (days) po": "8.0 days"},
      {"molecule": "O=C(NO)[C@H]1CC[C@]2(CC1)OOC1(O2)C2CC3CC(C2)CC1C3", "note": "(some centres unmarked) [OZ116]", "Survival (days) po": "7.7 days"},
      {"molecule": "O=C(O)c1cncn1C[C@H]1CC[C@]2(CC1)OOC1(O2)C2CC3CC(C2)CC1C3", "note": "(some centres unmarked) [OZ231]", "Survival (days) po": "5.3 days"},
      {"molecule": "OCC1(CO)COC2(CCC3(CC2)OOC2(O3)C3CC4CC(C3)CC2C4)OC1", "note": "(centres unmarked) [OZ121]", "Survival (days) po": "7.3 days"}
    ]},
    {"tested_on": "ANKA strain of P. berghei", "assay": "single dose STI in vivo screen in infected mice", "set-up": "species or system Plasmodium berghei", "conditions": "single 10 mg/kg sc in 3% ethanol and 7% Tween 80; untreated control 5.6 ± 0.3", "how_it_was_run": "as §3", "values": [
      {"molecule": "O=C(O)c1ccc(OC[C@H]2CC[C@]3(CC2)OOC2(O3)C3CC4CC(C3)CC2C4)cc1", "note": "(some centres unmarked) [OZ176]", "Survival (days) sc": "7.0 days"},
      {"molecule": "FC1CCCCC12OOC1(CCCCC1)O2", "note": "(centres unmarked) [OZ06]", "Survival (days) sc": "1.0/NA/1.0^1 days"},
      {"molecule": "BrC[C@H]1CC[C@]2(CC1)OOC1(O2)C2CC3CC(C2)CC1C3", "note": "(some centres unmarked) [OZ123]", "Survival (days) sc": "16 days"},
      {"molecule": "O=C(NO)[C@H]1CC[C@]2(CC1)OOC1(O2)C2CC3CC(C2)CC1C3", "note": "(some centres unmarked) [OZ116]", "Survival (days) sc": "8.0 days"},
      {"molecule": "O=C(O)c1cncn1C[C@H]1CC[C@]2(CC1)OOC1(O2)C2CC3CC(C2)CC1C3", "note": "(some centres unmarked) [OZ231]", "Survival (days) sc": "6.0 days"},
      {"molecule": "OCC1(CO)COC2(CCC3(CC2)OOC2(O3)C3CC4CC(C3)CC2C4)OC1", "note": "(centres unmarked) [OZ121]", "Survival (days) sc": "7.3 days"}
    ]},
    {"tested_on": "ANKA strain of P. berghei", "assay": "single dose STI in vivo screen in infected mice", "set-up": "species or system Plasmodium berghei", "conditions": "single po dose in SSV; untreated control 5.6 ± 0.3", "how_it_was_run": "as §3", "units": {"Survival (days) SSVpo": "days"}, "values": [
      {"molecule": "O=C(O)c1ccc(OC[C@H]2CC[C@]3(CC2)OOC2(O3)C3CC4CC(C3)CC2C4)cc1", "note": "(some centres unmarked) [OZ176]", "Survival (days) SSVpo": 7.7},
      {"molecule": "BrC[C@H]1CC[C@]2(CC1)OOC1(O2)C2CC3CC(C2)CC1C3", "note": "(some centres unmarked) [OZ123]", "Survival (days) SSVpo": 7.0},
      {"molecule": "O=C(NO)[C@H]1CC[C@]2(CC1)OOC1(O2)C2CC3CC(C2)CC1C3", "note": "(some centres unmarked) [OZ116]", "Survival (days) SSVpo": 8.3},
      {"molecule": "O=C(O)c1cncn1C[C@H]1CC[C@]2(CC1)OOC1(O2)C2CC3CC(C2)CC1C3", "note": "(some centres unmarked) [OZ231]", "Survival (days) SSVpo": 5.7},
      {"molecule": "OCC1(CO)COC2(CCC3(CC2)OOC2(O3)C3CC4CC(C3)CC2C4)OC1", "note": "(centres unmarked) [OZ121]", "Survival (days) SSVpo": 8.0}
    ]}
  ]
}
